Marks after values point to notes of the source that are not given here.

One assay addresses EGFR tyrosine kinase (Homo sapiens (Human), UniProt P00533). The assay is described as follows: HTRF kinEASE TK in vitro kinase assay, EGFR. Type of assay: biochemical. To be noted: 30 min enzyme reaction, read-out: IC50 against EGFR. (In general: Time-resolved FRET reads energy transfer from a long-lived donor to a nearby acceptor.)
The target of another assay is Her-2 enzyme (Homo sapiens (Human), UniProt P04626). The assay can be described thus: HTRF kinEASE TK in vitro kinase assay, Her-2. Format: biochemical. As to conditions: 30 min enzyme reaction, read-out: IC50 against Her-2.
Assay [1] deals with NCI-H1975 nude mice transplanted tumor. The assay can be described thus: In vivo pharmacodynamics evaluation, NCI-H1975 nude mice transplanted tumor. Further details: species or system BALB/c nude mice. To be noted: gavage. As to the method:
BALB/c nude mice, female, 6 to 7 weeks of age, weight 20 g±2 g, purchased from Shanghai silaike experimental animal Co. Ltd., SPF environment.
The logarithmic growth phase NCI-H1975 cells cultured in vitro were digested with trypsin, washed with PBS for three times, the cell survival rate was detected by trypan blue exclusion to be >90%, the cell concentration was adjusted to 1×10^7/mL with PBS, which was implanted subcutaneously in back forelimb of the nude mice with 0.2 mL/pcs under aseptic condition. After tumor formation, the tumor were cultured for two passages in vivo, the tumor were stripped out to sterile culture plate when growing to the volume of 300 to 500 mm^3, a small amount of PBS was added, the tumor tissue with vigorous growth were cut into about 1.5 mm^3 tumor blocks, inoculated in right armpit of the nude mice. The diameter of tumor was measured with vernier caliper, when the tumor grew to 100 to 200 mm^3, then the animal were randomly grouping, […], gavage administration, once a day or every other day, continuously administrated for 14 days (d14) and observed for 7 days (d22), the negative control group was administrated with the same amount of solvent (saline solution of 1% DMSO), during the period of administration and recovery, the body weight and tumor size of the nude mice were measured weekly 2 to 3 times. The tumor volume and relative tumor volume were calculated according to the measured data, and the calculation formula of the tumor volume (TV) was TV=1/2×a×b^2, of which a and b represent the tumor length and diameter respectively. The relative tumor volume (RTV) was calculated according to the measured results, and the calculation formula was: RTV=Vt/V0, wherein V0 represents the tumor volume at the beginning of the experiment, Vt represents the volume of the tumor each measured.

For assay [2], the system named is HCC 827 (human non-small cell lung cancer cell line). The assay is described as follows: Growth inhibition test in tumor cells (CCK8), HCC827. Type of assay: cell-based. As to conditions: HCC 827 cells, 72 h.
Procedure: (§1) i) Logarithmic growth phase cells were collected and counted, the cells were suspended again with complete medium, the cell concentration was adjusted to an appropriate concentration (determined according to the results of cell density optimization test), inoculated to 96 plates, each of which with 100 mL cells suspension.
For assay [3], the system named is A549 (human lung cancer cell lines). The assay can be described thus: Growth inhibition test in tumor cells (CCK8), A549. Type of assay: cell-based. As to conditions: 72 h.
Procedure: as §1
Assay [4] has as its system MDA-MB-453 (human breast cancer cell lines). The assay is described as follows: Growth inhibition test in tumor cells (CCK8), MDA-MB-453. Type of assay: cell-based. As to conditions: MDA-MB-453 cells, 72 h. The protocol:
Growth Inhibition Tests of a Series of Compounds in Different Tumor Cells
i. Cell lines: A431 (human epithelial carcinoma cell lines), A549 (human lung cancer cell lines), NCI H1975 (human non-small cell lung cancer cell lines (HCC), HCC 827 (human non-small cell lung cancer cell line), MDA-MB-453 (human breast cancer cell lines)
MDA-MB-453 cell line: 90% L15+10% FBS; trypsin (a 0.25% (W/V) solution was prepared with […], 0.53 mM EDTA was added);
i) Logarithmic growth phase cells were collected and counted, the cells were suspended again with complete medium,
ii) The cell concentration was adjusted to an appropriate concentration, inoculated to 96 holes, each of which with 100 μL cells suspension.
iii) The cells were incubated in a 37° C., 100% relative humidity and 5% CO2 incubator, for 24 h.
i) Logarithmic growth phase cells were collected and counted, the cells were suspended again with complete medium, the cell concentration was adjusted to an appropriate concentration (determined according to the results of cell density optimization test), inoculated to 96 plates, each of which with […] cells suspension. The cells were incubated in a 37° C., 100% relative humidity and 5% CO2 incubator for 24 h.
ii) The test compounds were diluted to the corresponding concentration stated by culture medium, and the cells were inoculated as 25 μL/hole. The final concentration of the compound was from 10 μM to 0 μM, with a gradient of 4 times, and 10 concentration points totally.
iii) The cells were incubated in a 37° C., 100% relative humidity, 5% CO2 incubator for 72 h.
iv) Absorbing the culture medium, the complete medium containing 10% CCK-8 was added and incubated in the incubator of 37° C. for 2-4 h.
v) After a slight shake, the absorbance at 450 nm was measured by SpectraMax M5 Microplate Reader, taking the absorbance at 650 nm as a reference, the inhibition rate was calculated.
The IC50 curve fitting was performed by using the software Graphpad Prism 5 and the calculation formula log (inhibitor) vs. response to calculate the IC50 value.

In assay [5] the test system is A431 (human epithelial carcinoma cell lines). The assay is described as follows: Growth inhibition test in tumor cells (CCK8), A431. Type of assay: cell-based. As to conditions: A-431, 72 h.
Procedure: as §1
The test system of assay [6] is NCI H1975 (human non-small cell lung cancer cell lines). The assay is described as follows: Growth inhibition test in tumor cells (CCK8), NCI-H1975. Format: cell-based. As to conditions: 72 h.
Procedure: as §1

EGFR tyrosine kinase, sequence (P00533 25-1210): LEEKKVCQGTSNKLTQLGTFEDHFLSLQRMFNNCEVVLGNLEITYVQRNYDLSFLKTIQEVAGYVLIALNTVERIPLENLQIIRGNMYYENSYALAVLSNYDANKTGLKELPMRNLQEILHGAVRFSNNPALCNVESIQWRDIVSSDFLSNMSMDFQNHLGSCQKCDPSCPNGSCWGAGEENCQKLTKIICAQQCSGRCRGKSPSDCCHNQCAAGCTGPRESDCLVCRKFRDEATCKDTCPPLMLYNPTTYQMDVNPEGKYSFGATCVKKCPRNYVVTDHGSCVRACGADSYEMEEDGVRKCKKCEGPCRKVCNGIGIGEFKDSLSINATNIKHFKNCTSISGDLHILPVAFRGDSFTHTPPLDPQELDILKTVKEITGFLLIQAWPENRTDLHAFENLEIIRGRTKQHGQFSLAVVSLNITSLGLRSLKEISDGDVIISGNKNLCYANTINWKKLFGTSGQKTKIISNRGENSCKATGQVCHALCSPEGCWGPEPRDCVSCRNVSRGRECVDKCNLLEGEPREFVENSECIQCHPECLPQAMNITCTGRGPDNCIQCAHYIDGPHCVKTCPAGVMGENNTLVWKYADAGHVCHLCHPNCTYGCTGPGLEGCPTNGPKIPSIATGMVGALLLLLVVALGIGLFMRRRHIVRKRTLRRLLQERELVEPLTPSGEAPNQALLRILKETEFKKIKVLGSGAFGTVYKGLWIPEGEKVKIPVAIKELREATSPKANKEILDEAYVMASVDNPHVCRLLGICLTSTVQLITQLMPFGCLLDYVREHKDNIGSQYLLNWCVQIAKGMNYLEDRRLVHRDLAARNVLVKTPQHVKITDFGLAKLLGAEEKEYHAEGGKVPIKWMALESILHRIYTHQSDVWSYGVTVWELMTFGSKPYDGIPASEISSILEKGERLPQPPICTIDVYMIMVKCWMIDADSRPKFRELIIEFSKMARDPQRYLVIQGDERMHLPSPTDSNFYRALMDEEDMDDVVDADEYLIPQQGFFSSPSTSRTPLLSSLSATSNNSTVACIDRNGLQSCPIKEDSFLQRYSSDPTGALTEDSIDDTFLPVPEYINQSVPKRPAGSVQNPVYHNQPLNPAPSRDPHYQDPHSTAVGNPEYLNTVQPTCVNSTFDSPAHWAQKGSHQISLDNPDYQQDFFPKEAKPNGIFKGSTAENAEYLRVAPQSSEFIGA
Her-2 enzyme, sequence (P04626 23-1255): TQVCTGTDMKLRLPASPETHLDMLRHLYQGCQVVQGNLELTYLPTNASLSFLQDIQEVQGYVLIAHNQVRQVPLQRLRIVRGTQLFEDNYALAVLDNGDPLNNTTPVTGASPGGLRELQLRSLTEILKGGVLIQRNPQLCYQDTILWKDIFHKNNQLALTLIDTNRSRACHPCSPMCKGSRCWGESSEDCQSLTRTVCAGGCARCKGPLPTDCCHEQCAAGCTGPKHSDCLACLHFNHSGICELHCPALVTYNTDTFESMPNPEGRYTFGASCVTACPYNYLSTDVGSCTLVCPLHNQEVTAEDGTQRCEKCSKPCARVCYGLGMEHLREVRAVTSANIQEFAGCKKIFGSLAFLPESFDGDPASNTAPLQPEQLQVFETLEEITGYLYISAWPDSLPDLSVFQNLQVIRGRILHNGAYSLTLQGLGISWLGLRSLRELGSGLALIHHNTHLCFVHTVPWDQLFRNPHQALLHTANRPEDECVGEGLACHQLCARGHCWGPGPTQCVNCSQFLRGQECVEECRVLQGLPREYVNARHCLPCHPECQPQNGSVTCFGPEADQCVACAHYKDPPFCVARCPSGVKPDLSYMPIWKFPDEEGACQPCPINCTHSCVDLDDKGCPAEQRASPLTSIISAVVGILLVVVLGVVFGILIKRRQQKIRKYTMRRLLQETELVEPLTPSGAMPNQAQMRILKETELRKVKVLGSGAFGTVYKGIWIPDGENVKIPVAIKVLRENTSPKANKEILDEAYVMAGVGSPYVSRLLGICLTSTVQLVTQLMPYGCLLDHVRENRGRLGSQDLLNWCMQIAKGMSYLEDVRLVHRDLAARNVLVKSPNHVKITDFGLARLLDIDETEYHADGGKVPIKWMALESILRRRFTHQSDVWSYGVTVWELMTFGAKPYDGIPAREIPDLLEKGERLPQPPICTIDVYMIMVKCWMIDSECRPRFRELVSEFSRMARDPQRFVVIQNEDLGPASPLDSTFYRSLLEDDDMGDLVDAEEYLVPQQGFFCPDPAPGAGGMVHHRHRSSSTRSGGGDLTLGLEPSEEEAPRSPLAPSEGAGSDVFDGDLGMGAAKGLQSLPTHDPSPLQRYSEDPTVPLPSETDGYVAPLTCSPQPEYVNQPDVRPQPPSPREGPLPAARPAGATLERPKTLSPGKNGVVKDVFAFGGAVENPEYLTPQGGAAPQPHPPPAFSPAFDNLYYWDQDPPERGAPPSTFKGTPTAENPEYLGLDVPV
Procedure for EGFR tyrosine kinase: (§2) The kinase analysis in vitro was performed using the HTRF kinEASE TK kit of Invitrogen Co., the procedure steps were carried out according to instructions of kit, the method then was used to detect the inhibitory effects of test compounds on substrate peptide phosphorylation of the EGFR receptor tyrosine kinase and Her-2 activity enzyme in vitro. Specific steps are as follows:
(§3) b) 2 microliters of the previously prepared TK-biotin substrate solution of EGFR and Her-2 enzyme corresponding to the substrate concentration were added to all the reaction holes.
(§4) The holes were sealed with sealing film for microplate, mixed and incubated at room temperature for 10 min to allow the compounds and enzymes fully combine.
(§5) d) 2 microliters of ATP solutions with concentration corresponding to EGFR and Her-2 enzyme were added to all the reaction holes to start the kinase reaction, the enzyme reaction time of EGFR and HER2 are 30 min.
(§6) e) The EGFR and Her-25 detection solution were prepared 5 min before the end of the kinase reaction. Streptavidin-XL665 and TK europium cryptate (1:100) detection solution corresponding to the two enzymes were prepared respectively by using detection buffer in the kit.
(§7) f) 5 microliters of diluted Streptavidin-XL665 were added to all the reaction holes after the kinase reaction was over, diluted TK antibody europium cryptate detection solutions were then added immediately after fully mixed.
Procedure for Her-2 enzyme: as §2, §3, §4, §5, §6, §7

In the case of `CCOCCOc1cc2ncnc(Nc3ccc(OCc4ccccn4)c(Cl)c3)c2cc1NC(=O)/C=C/CN(C)C` [Embodiment 12, (E)-N-(4-(3-chloro-4-(pyridin-2-ylmethoxy)phenylamino)-7-(2-ethoxyethoxy)quinazolin-6-yl)-4-(dimethylamino)but-2-enamide], the figures for the IC50 on EGFR tyrosine kinase and on Her-2 enzyme were 10.2 nM and 53.9 nM, respectively. The “Inhibition rate (%) d22” value is recorded as 66.1** % in assay [1] (5 mg/kg, qd); 78.7** % in assay [1] (20 mg/kg (middle dosage), qod); 90.5*** % in assay [1] (80 mg/kg (high dosage), qod). Moreover, the “RTV d22” value in assay [1] (5 mg/kg, qd) was determined as 2.47 ± 0.68; in assay [1] (20 mg/kg, qod) it was 1.59 ± 0.33; in assay [1] (80 mg/kg, qod) it was 0.70 ± 0.09. The “T/C (%) d22” value came to 33.21% in assay [1] (5 mg/kg, qd); 21.41% in assay [1] (20 mg/kg, qod); 9.34% in assay [1] (80 mg/kg, qod).

Consider `COCCCOc1cc2ncnc(Nc3ccc(F)c(Cl)c3)c2cc1NC(=O)/C=C/CN(C)C` [Embodiment 1, (E)-N-(4-(3-chloro-4-fluorophenylamino)-7-(3-methoxypropoxy)quinazolin-6-yl)-4-(dimethylamino)but-2-enamide], for which the IC50 on EGFR tyrosine kinase came out at 0.765 nM; in assay [2], 0.293 nM; at Her-2 enzyme it was 39.3 nM; in assay [3] it was 6.08 µM.

Turning to `CCOCCOc1cc2ncnc(Nc3ccc(F)c(Cl)c3)c2cc1NC(=O)/C=C/CN(CC)CC` [Embodiment 33, (E)-N-(4-(3-chloro-4-fluorophenylamino)-7-(2-ethoxyethoxy)quinazolin-6-yl)-4-(diethylamino)but-2-enamide], the IC50 at Her-2 enzyme is 10.9 nM; in assay [3], 3.53 µM.

With `C#Cc1cccc(Nc2ncnc3cc(OCCOCC)c(NC(=O)/C=C/CN(C)C)cc23)c1` [Embodiment 10, (E)-N-(7-(2-ethoxyethoxy)-4-(3-ethynylphenylamino)quinazolin-6-yl)-4-(dimethylamino)but-2-enamide], the IC50 at EGFR tyrosine kinase was 0.771 nM; in assay [4], 1.43 nM; in assay [2], 0.587 nM; on Her-2 enzyme it was 3.63 nM; in assay [5], 6.01 nM; in assay [6], 45.5 nM. This compound yielded an IC50 in assay [3] of 1.44 µM.

In the case of `CCOCCOc1cc2ncnc(Nc3ccc(F)c(Cl)c3)c2cc1NC(=O)/C=C\Cl` [Embodiment 32, (Z)—N-(4-(3-chloro-4-fluorophenylamino)-7-(2-ethoxyethoxy)quinazolin-6-yl)-3-chloroacrylamide], the IC50 in assay [6] is 1.6 nM; in assay [3], 4 µM.

As to `CCCOCCOc1cc2ncnc(Nc3ccc(F)c(Cl)c3)c2cc1NC(=O)/C=C/CN(C)C` [Embodiment 5, (E)-N-(4-(3-chloro-4-fluorophenylamino)-7-(2-propoxyethoxy)quinazolin-6-yl)-4-(dimethylamino)but-2-enamide], the IC50 amounted to 2.85 nM on EGFR tyrosine kinase; 0.555 nM in assay [2]; 132 nM at Her-2 enzyme; 8.15 nM in assay [5]; 3.14 µM in assay [3].

As for `CCOCCOc1cc2ncnc(Nc3ccc(OCc4cccc(F)c4)c(Cl)c3)c2cc1NC(=O)/C=C/CN(C)C` [Embodiment 11, (E)-N-(4-(4-(3-fluorobenzyloxy)3-chlorophenylamino)-7-(2-ethoxyethoxy)quinazolin-6-yl)-4-(dimethylamino)but-2-enamide], the IC50 at Her-2 enzyme came to 262 nM; in assay [5], 79.5 nM; in assay [6], 49.7 nM; in assay [3], 2.93 µM.

As to `CCOCCOc1cc2ncnc(Nc3ccc(F)c(Cl)c3)c2cc1NC(=O)/C=C/CN(C)C` [Embodiment 4, (E)-N-(4-(3-chloro-4-fluorophenylamino)-7-(2-ethoxyethoxy)quinazolin-6-yl)-4-(dimethylamino)but-2-enamide], the IC50 on EGFR tyrosine kinase was 0.699 nM; in assay [4], 0.62 nM; in assay [2] it was 0.312 nM; on Her-2 enzyme, 42.1 nM; in assay [5], 1.53 nM; in assay [3], 7.52 µM. Moreover, the “Inhibition rate (%) d22” value in assay [1] (5 mg/kg (low dosage), qod) is given as 73.2** %; in assay [1] (20 mg/kg (middle dosage), qod) it was 82.0** %; in assay [1] (80 mg/kg (high dosage), qod) it was 95.1*** %. Moreover, the “RTV d22” value is recorded as 2.00 ± 0.29 in assay [1] (5 mg/kg, qod); 1.39 ± 0.40 in assay [1] (20 mg/kg, qod); 0.43 ± 0.05 in assay [1] (80 mg/kg, qod). For the same compound, the “T/C (%) d22” value in assay [1] (5 mg/kg, qod) is reported as 26.91%; in assay [1] (20 mg/kg, qod) it was 18.71%; in assay [1] (80 mg/kg, qod), 5.75%.

As for `CN(C)CC=CC(=O)Nc1cc2c(Nc3ccc(F)c(Cl)c3)ncnc2cc1O[C@H]1CCOC1` [Afatinib, N-[4-[(3-chloro-4-fluorophenyl)amino]-7-[[(3S)-tetrahydro-3-furyl]oxy]-6-quinazolinyl)-4-(dimethylamino)-but-2-enamide, reference compound], in assay [1] (20 mg/kg, qd, 14 days), the “RTV d22” value was 1.67 ± 0.20 and the “T/C (%) d22” value stood at 22.44%. Moreover, in assay [1] (20 mg/kg, qd, 14 days, listed as Positive control), the “Inhibition rate (%) d22” value is 67.6** %. In assay [3], the IC50 came out at 6.78 µM.

Regarding `COC[C@H](C)Oc1cc2ncnc(Nc3ccc(F)c(Cl)c3)c2cc1NC(=O)/C=C/CN(C)C` [Embodiment 3, (S,E)-N-(4-(3-chloro-4-fluorophenylamino)-7-(2-methoxy-1-methylethoxy)quinazolin-6-yl)-4-(dimethylamino)but-2-enamide], the IC50 is 482 nM on Her-2 enzyme, 16.7 nM in assay [5], 66.5 nM in assay [6] and 1.96 µM in assay [3].

In the case of `COC[C@@H](C)Oc1cc2ncnc(Nc3ccc(F)c(Cl)c3)c2cc1NC(=O)/C=C/CN(C)C` [Embodiment 2, (R,E)-N-(4-(3-chloro-4-fluorophenylamino)-7-(2-methoxy-1-methylethoxy)quinazolin-6-yl)-4-(dimethylamino)but-2-enamide], the IC50 was 148 nM on Her-2 enzyme, 43 nM in assay [5], 49.9 nM in assay [6] and 7.56 µM in assay [3].

Take `CC(C)OCCOc1cc2ncnc(Nc3ccc(F)c(Cl)c3)c2cc1NC(=O)/C=C/CN(C)C` [Embodiment 6, (E)-N-(4-(3-chloro-4-fluorophenylamino)-7-(2-isopropoxyethoxy)quinazolin-6-yl)-4-(dimethylamino)but-2-enamide]: the IC50 at EGFR tyrosine kinase was determined as 1.54 nM; in assay [2] it was 0.55 nM; on Her-2 enzyme, 83.8 nM; in assay [5], 5.87 nM; in assay [3], 1.84 µM.
